The values that follow are results of earlier work, collected in US4883863A, “Tripeptide derivatives and antiplasmin agents containing the same” (Nitto Boseki Co., Ltd., priority 1987, dated 1989).

Where two headings read alike, the source gives them in different places.

The target in data set [1] is T1, plasmin (Homo sapiens, UniProt P00747). Also noted: purchased Sankyo (Color Test α2 -D1 Kit). Conditions: cited from earlier work.
Data set [2] has as its target T1, plasmin. Also noted: purchased Sankyo (Color Test α2 -D1 Kit). To be noted: cited from earlier work. The source holds these as a separate data set.

T1 sequence (P00747 581-810 limits assumed, species assumed): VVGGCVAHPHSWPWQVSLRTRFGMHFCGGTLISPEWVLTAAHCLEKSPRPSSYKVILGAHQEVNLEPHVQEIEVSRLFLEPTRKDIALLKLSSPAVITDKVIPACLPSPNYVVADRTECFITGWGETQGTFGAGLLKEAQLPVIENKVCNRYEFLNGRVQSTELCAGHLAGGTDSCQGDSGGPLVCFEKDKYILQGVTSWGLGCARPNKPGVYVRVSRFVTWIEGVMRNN
T1 sequence (P00747 97-580 partner limits assumed, species assumed): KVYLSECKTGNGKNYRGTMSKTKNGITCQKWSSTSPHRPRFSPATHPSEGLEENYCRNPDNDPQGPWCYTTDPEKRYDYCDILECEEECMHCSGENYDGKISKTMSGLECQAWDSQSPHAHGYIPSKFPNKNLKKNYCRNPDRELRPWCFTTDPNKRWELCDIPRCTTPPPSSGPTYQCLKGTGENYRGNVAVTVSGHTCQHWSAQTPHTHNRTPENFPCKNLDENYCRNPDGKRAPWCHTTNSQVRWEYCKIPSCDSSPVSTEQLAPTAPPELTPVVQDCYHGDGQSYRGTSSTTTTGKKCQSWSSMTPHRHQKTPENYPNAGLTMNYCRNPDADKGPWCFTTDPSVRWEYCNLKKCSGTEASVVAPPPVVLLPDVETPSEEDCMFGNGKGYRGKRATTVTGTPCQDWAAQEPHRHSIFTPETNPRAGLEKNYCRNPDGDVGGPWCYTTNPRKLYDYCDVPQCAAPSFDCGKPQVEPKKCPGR

On to `NCCCCCC(=O)O` [ε-Aminocaproic acid], for which, on plasmin [1] (background, related art), the “ability to inhibit decomposition of other substrates by plasmin, e.g. fibrinogen” value is listed as “substantially no ability to inhibit”. Moreover, the “inhibition of fibrinolysis by plasmin” value at plasmin [2] (background, related art) is listed as “inhibit only fibrinolysis by plasmin”.
As to `NC[C@H]1CC[C@H](C(=O)O)CC1` [t-AMCHA, trans-aminoethylcyclohexanecarboxylic acid], the “ability to inhibit decomposition of other substrates by plasmin, e.g. fibrinogen” value on plasmin [1] is “substantially no ability to inhibit”. The “inhibition of fibrinolysis by plasmin” value on plasmin [2] is on record as “inhibit only fibrinolysis by plasmin”.
